Where two headings read alike, the source gives them in different places.
Tests used:
XPO1 [1] = biological target: T1, XPO1 (Homo sapiens, UniProt O14980); assay: SIM of nuclei isolated from wildtype iPSNs following Leptomycin B treatment; type: cell-based; conditions: 10 nM, ~18 hours
Target sequence in this assay (O14980 whole entry): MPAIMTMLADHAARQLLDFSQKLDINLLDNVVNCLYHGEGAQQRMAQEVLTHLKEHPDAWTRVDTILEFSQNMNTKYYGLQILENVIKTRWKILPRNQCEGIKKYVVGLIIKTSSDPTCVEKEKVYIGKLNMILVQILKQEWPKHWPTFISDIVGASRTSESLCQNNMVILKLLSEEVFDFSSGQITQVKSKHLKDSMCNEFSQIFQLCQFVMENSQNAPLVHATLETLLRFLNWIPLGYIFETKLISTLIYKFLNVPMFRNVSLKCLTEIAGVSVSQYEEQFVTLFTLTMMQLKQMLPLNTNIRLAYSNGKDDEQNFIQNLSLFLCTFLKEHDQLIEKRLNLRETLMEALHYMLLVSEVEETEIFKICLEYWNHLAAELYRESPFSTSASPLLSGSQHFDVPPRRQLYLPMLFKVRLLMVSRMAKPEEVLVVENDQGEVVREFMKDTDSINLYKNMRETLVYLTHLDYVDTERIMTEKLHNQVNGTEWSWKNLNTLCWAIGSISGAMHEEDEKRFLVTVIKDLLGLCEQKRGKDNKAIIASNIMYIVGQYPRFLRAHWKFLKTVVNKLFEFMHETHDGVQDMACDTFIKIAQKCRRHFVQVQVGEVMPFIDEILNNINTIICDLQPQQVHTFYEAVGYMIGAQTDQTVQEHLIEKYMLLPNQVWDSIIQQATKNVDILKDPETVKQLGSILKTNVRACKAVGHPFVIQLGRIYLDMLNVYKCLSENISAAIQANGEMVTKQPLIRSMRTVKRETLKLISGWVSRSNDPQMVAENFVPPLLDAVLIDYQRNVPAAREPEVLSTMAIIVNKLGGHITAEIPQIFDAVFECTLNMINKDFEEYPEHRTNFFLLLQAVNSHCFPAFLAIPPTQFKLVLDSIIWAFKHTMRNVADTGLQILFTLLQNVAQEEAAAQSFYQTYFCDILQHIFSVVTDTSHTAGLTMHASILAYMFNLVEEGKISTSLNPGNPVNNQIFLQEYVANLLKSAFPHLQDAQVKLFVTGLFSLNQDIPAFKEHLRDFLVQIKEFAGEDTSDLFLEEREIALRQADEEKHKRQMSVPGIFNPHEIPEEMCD
Experimental: Leptomycin B and ASO Treatment of iPSC Derived Neurons Leptomycin B: On day 18 of differentiation, 10 nM Leptomycin B (LMB, Cayman Chemicals) was added to the culture media and iPSNs were returned to the incubator for ˜18 hours before downstream analyses were conducted. Ethanol was used as vehicle control. Nuclei were isolated from iPSNs and postmortem human brain and spinal cord tissue using the Nuclei Pure Prep Nuclei Isolation Kit (Sigma Aldrich) following manufacturer protocol as previously described (13). Briefly, iPSN lysates were prepared by rinsing iPSNs with 1×PBS, adding mL supplied lysis buffer supplemented with DTT and Triton X-100 directly to each well, and harvesting iPSNs with a cell scraper. […] All lysates were transferred to a 50 mL conical tube and vortexed. Sucrose gradients were assembled following manufacturer protocol. A 1.85 M sucrose gradient was used to enrich for neuronal nuclei. Samples were centrifuged at 15,600 rpm and 4° C. using a Swi32T swinging bucket rotor and Beckman ultracentrifuge (Beckman Coulter) for 45 minutes. The supernatant was discarded, and the remaining nuclei pellet was resuspended in 1 mL of supplied nuclei storage buffer to wash the nuclei of any remaining sucrose. Resuspended nuclei were centrifuged at 2500 rpm and 4° C. for 5 minutes. The supernatant was once again discarded, and the resulting nuclei pellet was vortexed in 1 mL of supplied nuclei storage buffer to resuspend for downstream imaging analysis. […] Nuclei staining and super resolution imaging was performed as previously described (6). Following nuclei isolation, 10-50 μL of final nuclei/storage buffer suspension was centrifuged onto collagen coated (1 mg/mL; Advanced Biomatrix) slides with a CytoSpin 4 centrifuge (Thermo Fisher Scientific). Nuclei were immediately fixed with 4% PFA for 5 minutes, washed with 1×PBS 3×10 minutes and permeabilized with 1×PBST containing 0.1% Triton X-100 for 15 minutes. Nuclei were then blocked with 10% normal goat serum diluted in 1×PBS for 1 hour at room temperature and incubated in primary antibody diluted in block (10% normal goat serum in 1×PBS) overnight at 4° C. […] After 16-18 hours, nuclei were washed with 1×PBS 3×10 minutes, incubated in secondary antibody diluted in block (10% normal goat serum in 1×PBS) for 1 hour at room temperature (See Table B for antibody information). Nuclei were washed with 1×PBS 3×10 minutes and cover slipped using Prolong Gold Antifade Reagent (Invitrogen) and 18 mm×18 mm 1.5 high tolerance coverslips (MatTek). NeuN or GFP positive nuclei (see Description of the Figures) were identified via microscope eye pieces. A single z section ˜110 nm thick was acquired by widefield imaging to confirm NeuN or GFP positivity. The immunostained Nup or ESCRT-III protein was subsequently imaged by super resolution structured illumination microscopy (SIM) using a Zeiss ELYRA 51. For each image, 5 grid rotations and optimal z sectioning parameters were employed. Following image acquisition, SIM images were reconstructed using default SIM processing parameters with Zeiss Zen Black 2.3 SP1 software. Automated nucleoporin spot and volume analysis was conducted as previously described (6, 26) using Imaris version 9.2.0 (Bitplane) and the 3D suite plugin in FIJI version 1.52p. Nucleoporin spots were counted using automated spot detection. […] The total number of nucleoporin spots was determined using a 3D-rendering of segmented SIM images comprising the entire depth of each nucleus.

XPO1 [2] = biological target: T1, XPO1; assay: Nuclear/cytoplasmic fractionation and western blot of iPSNs following Leptomycin B treatment; type: cell-based; conditions: iPSNs (FIGS. 12A-12C)
Target sequence in this assay (O14980 whole entry): as above
Experimental: Leptomycin B and ASO Treatment of iPSC Derived Neurons Leptomycin B: On day 18 of differentiation, 10 nM Leptomycin B (LMB, Cayman Chemicals) was added to the culture media and iPSNs were returned to the incubator for ˜18 hours before downstream analyses were conducted. Ethanol was used as vehicle control. iPSNs were rinsed in 1×PBS and nuclear/cytoplasmic fractionation was performed with the NE-PER Nuclear and Cytoplasmic Extraction Kit (Thermo Fisher Scientific) according to manufacturer protocol. Following the addition of C2 buffer, 25 μL of sample was added to 25 μL 2× Laemmli buffer (BioRad) and set aside as protein input. An additional 25 μL was set aside on ice as RNA input. From each nuclear and cytoplasmic fraction obtained, 25 μL sample was added to 25 μL 2× Laemmli buffer for protein analysis. An additional 25 μL was added to 500 μL RLT buffer (QIAGEN) for RNA analysis. The remainder of each fraction was stored at −80° C. At the completion of the fractionation, 500 μL RLT buffer was added to the RNA input sample. RNA isolation, cDNA synthesis, and qRT-PCR were performed as described below. Western blot analysis was conducted as described below. Equal volume of each sample (10 μL) was loaded in acrylamide gels. […] The supernatant was transferred to a new Eppendorf tube and protein concentrations were determined using the BCA protein estimation assay kit (Thermo Fisher Scientific). […]

XPO1 [3] = biological target: T1, XPO1; assay: Nuclear/cytoplasmic fractionation and qRT-PCR of C9orf72 iPSNs following Leptomycin B treatment; type: cell-based
Target sequence in this assay (O14980 whole entry): as above
Experimental: Ethanol was used as vehicle control. iPSNs were rinsed in 1×PBS and nuclear/cytoplasmic fractionation was performed with the NE-PER Nuclear and Cytoplasmic Extraction Kit (Thermo Fisher Scientific) according to manufacturer protocol. Following the addition of C2 buffer, 25 μL of sample was added to 25 μL 2× Laemmli buffer (BioRad) and set aside as protein input. An additional 25 μL was set aside on ice as RNA input. From each nuclear and cytoplasmic fraction obtained, 25 μL sample was added to 25 μL 2× Laemmli buffer for protein analysis. An additional 25 μL was added to 500 μL RLT buffer (QIAGEN) for RNA analysis. The remainder of each fraction was stored at −80° C. At the completion of the fractionation, 500 μL RLT buffer was added to the RNA input sample. RNA isolation, cDNA synthesis, and qRT-PCR were performed as described below. […] RNA from immunoprecipitated complexes or nuclear and cytoplasmic cellular fractions was isolated with a RNeasy kit (QIAGEN) according to manufacturer protocol. RNA concentrations were determined with a NanoDrop 1000 spectrophotometer (Thermo Fisher Scientific). […]

XPO1 [4] = biological target: T1, XPO1; conditions: non-neuronal cell lines (ref 24); cited from earlier work
Target sequence in this assay (O14980 whole entry, species assumed): as the sequence (O14980 whole entry) above

stathmin-2 mRNA = assay: qRT-PCR for full length and truncated stathmin-2 mRNA; type: cell-based, human; conditions: C9orf72 and sALS iPSNs; day 46; 3 week exposure; GAPDH normalization
Experimental: (§1) Non-targeting scrambled control (676630): […] (SEQ ID NO:2), CHMP7 ASO 1 (1508916): […] (SEQ ID NO:3), CHMP7 ASO 2 (1508917): […] (SEQ ID NO:4), and CHMP7 ASO 3 (1508918): […] (SEQ ID NO:14) were generously provided by Ionis Pharmaceuticals. On day 25 of differentiation, ASOs were added to the culture media at concentrations of […] as indicated in Description of the Figures. Media was exchanged and ASO replaced every 3 days until iPSNs were subjected to downstream analyses on day 40 of differentiation for western blot, SIM, and glutamate excitotoxicity and day 46 of differentiation for stathmin-2 qRT-PCR, Ran GTPase localization, and TDP-43 localization.
RNA from iPSNs was isolated with a RNeasy kit (QIAGEN) according to manufacturer protocol. RNA concentrations were determined with a NanoDrop 1000 spectrophotometer (Thermo Fisher Scientific). For CHMP7 ASO experiments, RNA was isolated on day 46 of differentiation following 3 weeks exposure to 5 μM CHMP7 ASO2 or scrambled control ASO. For CHMP7 overexpression experiments, RNA was isolated on day 32 of differentiation (2 weeks after plasmid nucleofection). […]

iPSNs = assay: Glutamate toxicity, propidium iodide (PI) incorporation; type: cell-based, human
Experimental: On day 12 of differentiation, iPSNs were plated in 24 well optical bottom plates (Cellvis) at a density of 250,000 neurons per well. Neurons were rinsed with 1×PBS and fed with fresh stage 3 media daily remove dead cells and debris until day 25 of differentiation. On day 25 of differentiation, ASO treatment was initiated as described above. Every 3 days, iPSNs were rinsed 3× with 1×PBS and media and ASO were replaced. On day 40 of differentiation, iPSNs were washed with 1×PBS to remove any remaining debris and dead cells. Media was replaced with ACSF (Tocris) containing 0 or 10 μM glutamate (Sigma Aldrich). iPSNs were incubated at 37° C. with 5% CO2 for 4 hours. After 3.5 hours, one drop of NucBlue Live ReadyProbes (Thermo Fisher Scientific) and […] (Thermo Fisher Scientific) and returned to the incubator for 30 mins. iPSNs were imaged in an environmentally controlled chamber with a Zeiss LSM 800 confocal microscope. […] PI and DAPI spots were counted using FIJI.
On day 12 of differentiation, iPSNs were plated in 24 well optical bottom plates (Cellvis) at a density of 250,000 neurons per well. […] After 3.5 hours, one drop of NucBlue Live ReadyProbes (Thermo Fisher Scientific) and 1 μM propidium iodide (Thermo Fisher Scientific) and returned to the incubator for 30 minutes. iPSNs were imaged in an environmentally controlled chamber with a Zeiss LSM 800 confocal microscope. […]

TDP-43 = assay: Immunostaining and confocal imaging for TDP-43 in iPSNs; type: cell-based, human; conditions: sALS iPSNs; day 46; 3-week treatment
Experimental: as §1
On day 12 of differentiation, iPSNs were plated in 24 well optical bottom plates (Cellvis). […] Nuclear intensity and N/C ratios were calculated with FIJI as previously described (80). […]

[5] = system: POM121, Nup133, Nup50, FG Nups; assay: SIM imaging of nucleoporins in nuclei isolated from CHMP7 ASO treated iPSNs; type: cell-based, human; conditions: 5 μM, 2-week exposure
Experimental: C9orf72 repeat ASO: Sense strand targeting G4C2 ASO (619251) (13) was generously provided by Ionis Pharmaceuticals. On day 20 of differentiation, 5 μM sense targeting ASO was added to the culture media. Media was exchanged and ASO replaced on day 22 of differentiation and downstream analyses were performed on day 25 of differentiation. CHMP7 ASO: Non-targeting scrambled control (676630): […] (SEQ ID NO: 2), CHMP7 ASO 1 (1508916): […] (SEQ ID NO: 3), CHMP7 ASO 2 (1508917): […] (SEQ ID NO: 4), and CHMP7 ASO 3 (1508918): […] (SEQ ID NO:14) were generously provided by Ionis Pharmaceuticals. On day 25 of differentiation, ASOs were added to the culture media at concentrations of 1, 5, or 10 μM as indicated in Description of the Figures. Media was exchanged and ASO replaced every 3 days until day 40 of differentiation.
Nuclei were isolated from iPSNs and postmortem human brain and spinal cord tissue using the Nuclei Pure Prep Nuclei Isolation Kit (Sigma Aldrich) following manufacturer protocol as previously described (13). Briefly, iPSN lysates were prepared by rinsing iPSNs with 1×PBS, adding […] supplied lysis buffer supplemented with DTT and Triton X-100 directly to each well, and harvesting iPSNs with a cell scraper. Postmortem brain and spinal cord lysates were prepared by homogenizing 150 mg fresh frozen tissue directly in supplied lysis buffer with a dounce homogenizer. All lysates were transferred to a 50 mL conical tube and vortexed. Sucrose gradients were assembled following manufacturer protocol. A 1.85 M sucrose gradient was used to enrich for neuronal nuclei. Samples were centrifuged at 15,600 rpm and 4° C. using a Swi32T swinging bucket rotor and Beckman ultracentrifuge (Beckman Coulter) for 45 minutes. The supernatant was discarded, and the remaining nuclei pellet was resuspended in 1 mL of supplied nuclei storage buffer to wash the nuclei of any remaining sucrose. Resuspended nuclei were centrifuged at 2500 rpm and 4° C. for 5 minutes. The supernatant was once again discarded, and the resulting nuclei pellet was vortexed in 1 mL of supplied nuclei storage buffer to resuspend for downstream imaging analysis. For western blots, washed nuclei were lysed in RIPA buffer as described below.
Nuclei staining and super resolution imaging was performed as previously described (6). Following nuclei isolation, 10-50 μL of final nuclei/storage buffer suspension was centrifuged onto collagen coated (1 mg/mL; Advanced Biomatrix) slides with a CytoSpin 4 centrifuge (Thermo Fisher Scientific). Nuclei were immediately fixed with 4% PFA for 5 minutes, washed with 1×PBS 3×10 minutes and permeabilized with 1×PBST containing 0.1% Triton X-100 for 15 minutes. Nuclei were then blocked with 10% normal goat serum diluted in 1×PBS for 1 hour at room temperature and incubated in primary antibody diluted in block (10% normal goat serum in 1×PBS) overnight at 4° C. (See Table B for antibody information). After 16-18 hours, nuclei were washed with 1×PBS 3×10 minutes, incubated in secondary antibody diluted in block (10% normal goat serum in 1×PBS) for 1 hour at room temperature (See Table B for antibody information). Nuclei were washed with 1×PBS 3×10 minutes and cover slipped using Prolong Gold Antifade Reagent (Invitrogen) and 18 mm×18 mm 1.5 high tolerance coverslips (MatTek). NeuN or GFP positive nuclei (see Description of the Figures) were identified via microscope eye pieces. A single z section ˜110 nm thick was acquired by widefield imaging to confirm NeuN or GFP positivity. The immunostained Nup or ESCRT-III protein was subsequently imaged by super resolution structured illumination microscopy (SIM) using a Zeiss ELYRA 51. For each image, 5 grid rotations and optimal z sectioning parameters were employed. Following image acquisition, SIM images were reconstructed using default SIM processing parameters with Zeiss Zen Black 2.3 SP1 software. […]

[6] = C9orf72 and sALS iPSNs, day 40, compared to scrambled control ASO
[7] = C9orf72 iPSNs, compared to scrambled control ASO

In the case of `CCC(=C/[C@H](C)C/C=C/C(C)=C/[C@@H](C)C(=O)[C@@H](C)[C@H](O)[C@@H](C)C/C(C)=C/C(=O)O)/C=C/[C@@H]1OC(=O)C=C[C@@H]1C` [LMB, Leptomycin B], the “CHMP7 in the nucleus” value (XPO1 [1]) is reported as “significant increase”, the “Nup50 immunoreactivity in nuclei” value (XPO1 [1]) is reported as “reduction” and the “Nup133 immunoreactivity in nuclei” value (XPO1 [1]) is reported as “reduction”. The “POM121 immunoreactivity in nuclei” value (XPO1 [1]) was “reduction”, the “VPS4 immunoreactivity in nuclei” value (XPO1 [1]) was “increase” and the “nuclear levels of DDX3X” value (XPO1 [2]) was “increases”. For the same molecule, the “nuclear levels of RanBP1” value (XPO1 [2]) was “increases”, the “presence of G4C2 repeat RNA in the nuclear fraction” value (XPO1 [3]; C9orf72 iPSNs (FIG. 12D)) was “strongly increases” and the “presence of G2C4 repeat RNA in the nuclear fraction” value (XPO1 [3]; C9orf72 iPSNs (FIG. 12E)) was “strongly increases”. The “nuclear levels of DDX3X” value (XPO1 [4]) was “increases” and the “nuclear levels of RanBP1” value (XPO1 [4]) was “increases”.

In the case of “TGTTACCCTCAGATACCGCC (listed as DNA, chemistry not given here) [CHMP7 ASO 2, CHMP7 targeting ASO provided by Ionis Pharmaceuticals; targets human CHMP7 pre-mRNA, RNase H based degradation]”, the “full length stathmin-2 mRNA levels” value (stathmin-2 mRNA) is reported as “restored to levels observed in control iPSNs”, the “truncated stathmin-2 mRNA levels” value (stathmin-2 mRNA) is reported as “restored to levels observed in control iPSNs” and the “sensitivity to glutamate induced excitotoxicity as measured by propidium iodide (PI) incorporation” value (iPSNs; C9orf72 and sALS iPSNs, two week treatment (FIG. 20I)) is reported as “significantly decreased”. The “sensitivity to glutamate induced excitotoxicity as measured by propidium iodide (PI) incorporation” value (iPSNs; C9orf72 iPSNs, 2-week exposure to 5 μM ASO, 10 μM glutamate 4 hours (FIG. 4H)) was “mitigates”, the “nuclear TDP-43 localization” value (TDP-43) was “restored” and the “Nup50 expression in iPSN nuclei and NPCs” value [5, 6] was “significantly restored”. The “Nup133 expression in iPSN nuclei and NPCs” value [5, 6] was “significantly restored”, the “POM121 expression in iPSN nuclei and NPCs” value [5, 6] was “significantly restored” and the “Nup50 expression in iPSN nuclei and NPCs” value [5, 7] was “significantly restored”. The “Nup133 expression in iPSN nuclei and NPCs” value [5, 7] was “significantly restored” and the “POM121 expression in iPSN nuclei and NPCs” value [5, 7] was “significantly restored”.
